In PMC8571951, “An activity‐based bioprobe differentiates a novel small molecule inhibitor from a LOXL2 antibody and provides renewed promise for anti‐fibrotic therapeutic strategies” (Clinical and Translational Medicine, 2021):

Legend:
rh LOXL2 = biological target: T1, rh LOXL2 (Homo sapiens, UniProt Q9Y4K0); assay: Jump dilution assay, rh LOXL2; type: biochemical
T1 sequence (Q9Y4K0 26-774): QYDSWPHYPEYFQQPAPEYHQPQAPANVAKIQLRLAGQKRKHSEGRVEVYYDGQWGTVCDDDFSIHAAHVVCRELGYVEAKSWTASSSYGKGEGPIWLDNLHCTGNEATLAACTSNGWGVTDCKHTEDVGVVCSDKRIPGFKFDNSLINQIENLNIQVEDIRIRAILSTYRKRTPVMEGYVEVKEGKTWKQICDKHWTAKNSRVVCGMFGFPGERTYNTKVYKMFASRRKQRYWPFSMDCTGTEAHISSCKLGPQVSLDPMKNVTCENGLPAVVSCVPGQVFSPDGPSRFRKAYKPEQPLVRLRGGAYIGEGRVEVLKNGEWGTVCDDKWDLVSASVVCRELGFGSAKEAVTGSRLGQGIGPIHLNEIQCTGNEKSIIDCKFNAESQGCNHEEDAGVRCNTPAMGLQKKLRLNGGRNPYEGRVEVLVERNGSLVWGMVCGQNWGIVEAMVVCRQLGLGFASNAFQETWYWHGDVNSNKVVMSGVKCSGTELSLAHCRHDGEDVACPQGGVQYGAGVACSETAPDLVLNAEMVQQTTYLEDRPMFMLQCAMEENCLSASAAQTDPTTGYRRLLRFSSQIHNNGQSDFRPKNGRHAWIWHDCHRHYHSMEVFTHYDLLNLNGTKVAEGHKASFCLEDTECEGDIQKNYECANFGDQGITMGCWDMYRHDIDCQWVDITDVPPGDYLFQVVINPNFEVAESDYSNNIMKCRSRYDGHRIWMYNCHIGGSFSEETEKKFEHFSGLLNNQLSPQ
Excerpt: FIGURE 1 Characteristics of the activity‐based probe (ABP) PXS‐5878. (A) Chemical structure of PXS‐5878, with functional subunits denoted with different colours. The fluoroallylamine moiety (blue) was designed to interact with the lysine tyrosylquinone (LTQ) co‐factor within the lysyl oxidase active sites. An extended linker (green) was incorporated to provide optimal separation between the reactive functional group and the tag, avoiding unfavourable steric hindrance. Biotin was selected as a tag, with higher sensitivity found to be achieved using a double tag (red), resulting in PXS‐5878 as the preferred ABP. (B) Concentration‐dependent inhibition of recombinant human (rh) lysyl oxidase‐like 1‐4 (LOXL1‐4) and native bovine LOX in a standard Amplex Red assay with 30 min pre‐incubation; n = 3–4 independent experiments, standard error of mean (SEM). Native bovine LOX was used as a surrogate for human LOX as both enzymes have similar pharmacology for fluoroallylamines.[2], [9] (C) Irreversible nature of PXS‐5878 enzyme inhibition confirmed using a jump dilution assay. Enzyme (rh LOXL1, rh LOXL2 or LOXL3) was pre‐incubated with 10 × IC50 of PXS‐5878 for 30 min, then diluted 100x and remaining activity assessed by Amplex Red assay. […] Each value is an average of three experiments. (D) Schematic representation of the assay development to detect lysyl oxidase activity by PXS‐5878 using a direct enzyme‐linked assay with lysyl oxidases as the target analyte. HRP: horseradish peroxidase; TMB: 3,3′,5,5′‐tetramethylbenzidine, a chromogenic substrate. […]
For fluoroallylamine-based inhibitors, replacement of fluorine with hydrogen (leading to the corresponding des-fluoro structures) results in a drop in potency and a switch from irreversible to reversible inhibition. […] (B) For PXS-5878, removal of the fluoro moiety in a simplified analogue results in a significant drop in potency for LOXL2, meaning (ir)reversibility cannot be accurately measured.

[1] = Pharmacokinetic profile in healthy human males; type: in vivo
Experimental: FIGURE 3 Inhibition of human lysyl oxidase‐like 2 (LOXL2) enzymatic activity by PXS‐5338 in clinical trials. (A) LOXL2 protein concentration in human serum is fairly constant over 24 h. Protein concentrations normalised to pre‐dose levels are plotted over time in healthy subjects treated with different doses (placebo, 100, 200 and 400 mg) of PXS‐5338. Mean ± SD with n = 6/time point. Phase 1 study with healthy male volunteers, ANZCTR ACTRN12617001444370. Legend of (A) also applies to (B) and (C). (B) Dose‐dependent inhibition of LOXL2 in plasma following a single oral dose of 100, 200 mg or 400 mg PXS‐5338. PXS‐5878/Simoa® platform used to measure the residual activity. Mean ± SD with n = 6/time point. (C) Pharmacokinetic (PK) profile of PXS‐5338 in healthy human males. […] (D) Correlation between LOXL2 protein concentration versus % inhibition. Activity data normalised to pre‐dose value.

CC(C)c1c(Cc2ccc(S(C)(=O)=O)nc2)c2ncccc2n1C/C(F)=C/CN [PXS‐5338]
Mode of inhibition (reversible/irreversible) of LOXL2 (rh LOXL2): irreversibly inhibits the enzyme | Compound half-life in humans [1]: prolonged compound half‐life
